According to publication PMC10871122, “Synthesis and In Vitro Evaluation as Potential Anticancer and Antioxidant Agents of Diphenylamine-Pyrrolidin-2-one-Hydrazone Derivatives” (International Journal of Molecular Sciences, 2023):

Tests used:
[1] = tested on: human foreskin fibroblasts (HF) CRL-4001; assay: MTT cell viability assay, fibroblasts; format: cell-based; conditions: 100 µM, 72 h
Text: (§1) The human malignant melanoma cell line IGR39, human triple-negative breast cancer MDA-MB-231, and human pancreatic carcinoma cell line Panc-1 were obtained from the American Type Culture Collection (ATCC, Manassas, VA, USA). Human foreskin fibroblasts (HF) CRL-4001 were originally obtained from ATCC and kindly provided by Prof. Helder Santos (University of Helsinki, Finland). Primary prostate carcinoma PPC-1 cell line was kindly provided by Prof. Tambet Teesalu (University of Tartu, Estonia). All cell lines were cultured in Dulbecco’s Modified Eagle’s GlutaMAX medium (Gibco (Carlsbad, CA, USA)), supplemented with 10,000 U/mL penicillin, 10 mg/mL streptomycin (Gibco), and 10% fetal bovine serum (Gibco). Cell cultures were grown at 37 °C in a humidified atmosphere containing 5% CO2. They were used until the passage of 20.
(§2) The effect of synthesized compounds on cell viability was studied using 3-(4,5-dimethylthiazol-2-yl)-2,5-diphenyltetrazolium bromide (MTT; Sigma-Aldrich Co., St Louis, MO, USA) assay, as described elsewhere. To summarize, the cells were seeded in triplicates in 96-well Corning plates (IGR39, MDA-MB-231, Panc-1 and PPC1: 4 × 10^3 cells/well; HF: 5 × 10^3 cells/well). The cells were treated with 100 μM of tested compounds after 24 h of incubation. After 72 h, the MTT reagent was added and the formazan crystals that had formed were dissolved in DMSO (Sigma-Aldrich Co., St. Louis, MO, USA). The absorbance was determined with a multidetection microplate reader at 570 and 630 nm.
(§3) The compound serial dilutions ranging from 50 µM to 1.56 µM were introduced to the cells. The Hill equation was used to calculate the EC50 value, or the concentration of a compound that results in a 50% reduction in the metabolic activity of cells.

[2] = Ferric reducing antioxidant power (FRAP) assay; conditions: for FRAP reducing power (Fe^2+): absorbance at 593 nm; for reducing power activity compared to the control antioxidant: vs protocatechuic acid
Text: The ferric reducing antioxidant power (FRAP) assay was used to evaluate the antioxidant potential of new compounds 2–17. Antioxidant assays are based on determining reduction power reactions (e.g., reduction Fe^3+ to Fe^2+) or scavenging free radicals (DPPH, ABTS). The FRAP assay is based on the method of single electron transfer (SET), measuring the reduction in the complex of ferric ions (Fe^3+)-ligand to the blue ferrous complex (Fe^2+). This method uses 2,4,6-tripyridyl-s-triazine (TPTZ) as the linking ligand to the iron. The antioxidant activity of the synthesized compounds was compared with that of the well-known antioxidant protocatechuic acid. […] PCA is a building block for pharmaceuticals and is widely used to produce many medicinal products such as veratridine (sodium channel inactivation inhibitor), erlotinib (antineoplastic), Picatin II (treatment of hepatitis B), itopride hydrochloride (gastrointestinal motility drug). PCA can also cause the induction of apoptosis of human leukemia cells. Moreover, the antioxidant activity of PCA is based on the reduction in free radical formation via the up-regulation of genes encoding enzymes with neutralizing activities.
Antioxidant activity was determined as an increase in absorbance at 593 nm, and the results were expressed as of Fe^2+ μmol/L and in relation to antioxidants, and protocatechuic acid, as positive control. The FRAP reagent contained 2.5 mL of 10 mM TPTZ solution in 40 mM HCl as well as 2.5 mL of FeCl3 (20 mM) and 25 mL of acetate buffer (0.3 M, pH = 3.6). Then, 100 μL of analyzed compounds (20 mM) were mixed with 3 mL of the FRAP reagent. The absorbance of the reaction mixture was measured spectrophotometrically at 593 nm using a UV-1280 UV-VIS spectrophotometer (Shimadzu Corporation, Kyoto, Japan). To compose the calibration curve, five concentrations of FeSO4·7H2O (5, 10, 15, 20, 25 μM) were used, and the absorbance was measured as a sample solution.

[3] = tested on: prostate carcinoma PPC-1 cell line; assay: MTT cell viability assay, prostate carcinoma PPC-1; format: cell-based, human; conditions: for effect on cell viability compared among the cell lines: 100 µM, 72 h, MTT
Text: as §1, §2, §3

[4] = tested on: human melanoma IGR39 cell line; assay: MTT cell viability assay, melanoma IGR39; format: cell-based; conditions: for effect on cell viability compared among the cell lines: 100 µM
Text: as §1, §2, §3

[5] = tested on: IGR39 spheroids (cancer cells with fibroblasts 1:1); assay: 3D culture: IGR39 spheroid size and viability (WST-1); format: cell-based, human; conditions: for effect on spheroid growth / size: 5 and 10 µM, 8 days
Protocol: (§4) Spheroids were made of cancer cells combined with fibroblast in a 1:1 ratio to better represent the real tumor microenvironment.
(§5) The magnetic 3D Bioprinting method was utilized to form cancer cell spheroids as described elsewhere. In short, the cells at 70% confluency were incubated with Nanoshuttle (n3D Biosciences, Inc., Houston, TX, USA) for 8 h. After that, the cells were trypsinized, centrifuged and seeded into ultra-low attachment 96-well plate at a ratio of 1.5 × 10^3 cancer cells and 1.5 × 10^3 human fibroblasts/well. The plate was incubated for two days at 37 °C in a humidified atmosphere on a magnetic drive. Next, the medium with 5 and 10 µM of selected compounds was added. Photos of spheroids were taken every two days using an Olympus IX73 inverted microscope (OLYMPUS CORPORATION, Tokyo, Japan), and analysis of spheroid size was performed using ImageJ, version 1.53o (National Institutes of Health, Bethesda, MD, USA) and Microsoft Office Excel 2016 software (Microsoft Corporation, Redmond, WA, USA).
(§6) On the last day of experiment, 10 µL of WST-1 reagent (Sigma-Aldrich Co, St. Louis, MO, USA) was added to each well. Following 10-h incubation, 50 µL of liquid from each well was moved to another 96-well plate and the absorbance was measured at 460 and 530 nm.

[6] = tested on: PPC-1 cell migration; assay: 'Wound healing' migration assay, PPC-1; format: cell-based, human; conditions: higher concentration (5 µM), 72 h of incubation
Protocol: Cancer cells were seeded at a density of 6 × 10^4 cells/well in 24-well plates. After 48 h of incubation, a 100 µL pipette tip was used to make the scratch in each well. Following a single PBS wash, the fresh medium containing 2 and 5 µM of compounds 5, 6, 13, and 14 was added to the cells. As a negative control, medium containing 0.1% DMSO was employed.

[7] = tested on: tested cancer cell lines (IGR39, PPC-1, MDA-MB-231, Panc-1); assay: MTT cell viability assay, statements on the tested cancer cell lines together; format: cell-based, human; conditions: Homo sapiens; against IGR39 and PPC-1 cell lines
Protocol: as §2, §3

[8] = tested on: melanoma cell; parameters: method as in PMID 21700700; conditions: cited from earlier work
[9] = tested on: PPC-1 spheroids (cancer cells with fibroblasts 1:1); assay: 3D culture: PPC-1 spheroid size and viability (WST-1); format: cell-based, human; conditions: 5 and 10 µM, 8 days
Protocol: as §4, §5, §6

[10] = tested on: human triple-negative breast cancer MDA-MB-231 cell line; assay: MTT cell viability assay, MDA-MB-231; format: cell-based; conditions: Homo sapiens, 72 h, MDA-MB-231
Text: as §1, §2, §3

| SMILES | effect on fibroblasts compared to cancer cell lines [1] | reducing power activity compared to the control antioxidant [2] | melting point [°C] | effect on cell viability compared among the cell lines ([4]; 72 h, MTT) | EC50 [7] [µM] | also measured |
| --- | --- | --- | --- | --- | --- | --- |
| CC(=NNC(=O)C1CC(=O)N(c2ccc(Nc3ccccc3)cc2)C1)c1cccc(N)c1 (centres unmarked) [Compound 17, N′-(1-(3-aminophenyl)ethylidene)-5-oxo-1-(4-(phenylamino)phenyl)pyrrolidine-3-carbohydrazide] | affected fibroblasts more than the tested cancer cell lines | higher than those of known antioxidants used as the controls | 239 to 240 | – | – | FRAP reducing power (Fe^2+) [2]: 129.28 µmol/L; effect on cell viability compared among the cell lines [3]: most active against the prostate carcinoma cell line |
| CSc1ccc(C=NNC(=O)C2CC(=O)N(c3ccc(Nc4ccccc4)cc3)C2)cc1 (centres unmarked) [Compound 10, N′-(4-(methylthio)benzylidene)-5-oxo-1-(4-(phenylamino)phenyl)pyrrolidine-3-carbohydrazide] | affected fibroblasts more than the tested cancer cell lines | – | 193 to 194 | strongest effect on melanoma cells | – | – |
| O=C(NN=Cc1ccc(Cl)c(Cl)c1)C1CC(=O)N(c2ccc(Nc3ccccc3)cc2)C1 (centres unmarked) [Compound 6, N′-(3,4-dichlorobenzylidene)-5-oxo-1-(4-(phenylamino)phenyl)pyrrolidine-3-carbohydrazide] | – | higher than those of known antioxidants used as the controls | 220 to 221 | strongest effect on melanoma cells | 2.5 to 20.2 | effect on spheroid viability compared to the control ([5]; WST-1, end of experiment): statistically significant effect; effect on cell migration [6]: inhibited; selectivity towards cancer cells compared to fibroblasts ([4]; IGR39 (melanoma) vs fibroblasts): 2.8 |
| CN(C)/N=N/c1[nH]cnc1C(N)=O [dacarbazine] | – | – | – | – | – | concentration that inhibits melanoma cell proliferation [8]: 25 to 100 µM |
| CCN(CC)c1ccc(C=NNC(=O)C2CC(=O)N(c3ccc(Nc4ccccc4)cc3)C2)c(O)c1 (centres unmarked) [Compound 8, N′-(4-(diethylamino)-2-hydroxybenzylidene)-5-oxo-1-(4-(phenylamino)phenyl)pyrrolidine-3-carbohydrazide] | affected fibroblasts more than the tested cancer cell lines | higher than those of known antioxidants used as the controls | 239 to 240 | strongest effect on melanoma cells | – | FRAP reducing power (Fe^2+) [2]: 120.24 µmol/L |
| O=C(NN=Cc1ccccc1)C1CC(=O)N(c2ccc(Nc3ccccc3)cc2)C1 (centres unmarked) [Compound 2, N′-benzylidene-5-oxo-1-(4-(phenylamino)phenyl)pyrrolidine-3-carbohydrazide] | affected fibroblasts more than the tested cancer cell lines | higher than those of known antioxidants used as the controls | 122 to 123 | strongest effect on melanoma cells | – | – |
| O=C(NN=Cc1c[nH]c2ccccc12)C1CC(=O)N(c2ccc(Nc3ccccc3)cc2)C1 (centres unmarked) [Compound 14, N′-((1H-indol-3-yl)methylene)-5-oxo-1-(4-(phenylamino)phenyl)pyrrolidine-3-carbohydrazide] | – | – | 238 to 239 | strongest effect on melanoma cells | 2.5 to 20.2 | effect on spheroid growth / size [5]: became somewhat larger; effect on spheroid growth / size [9]: slightly reduced the growth; EC50 [10]: 19.8 ± 1.86 µM; EC50 ([4]; Homo sapiens, IGR-39, MTT, 72 h, IGR39): 10.4 ± 1.35 µM |
| O=C(NN=Cc1cc(Cl)ccc1O)C1CC(=O)N(c2ccc(Nc3ccccc3)cc2)C1 (centres unmarked) [Compound 5, N′-(5-chloro-2-hydroxybenzylidene)-5-oxo-1-(4-(phenylamino)phenyl)pyrrolidine-3-carbohydrazide] | – | – | 223 to 224 | strongest effect on melanoma cells | 2.5 to 20.2 | effect on spheroid growth / size [5]: did not affect spheroid growth; effect on spheroid viability compared to the control ([5]; WST-1, end of experiment): statistically significant effect; spheroid cell viability (reduced up to) ([5]; WST-1, end of experiment): ~ 75%; effect on spheroid growth / size [9]: did not affect spheroid growth; selectivity towards cancer cells compared to fibroblasts ([3]; prostate carcinoma vs fibroblasts): 3.6 |
| O=C(NN=Cc1ccc(Br)s1)C1CC(=O)N(c2ccc(Nc3ccccc3)cc2)C1 (centres unmarked) [Compound 12, N′-((5-bromothiophen-2-yl)methylene)-5-oxo-1-(4-(phenylamino)phenyl)pyrrolidine-3-carbohydrazide] | affected fibroblasts more than the tested cancer cell lines | higher than those of known antioxidants used as the controls | 240 to 241 | – | – | effect on cell viability compared among the cell lines [3]: most active against the prostate carcinoma cell line |
